Laboratory results: ChEMBL document CHEMBL3885881, “DrugMatrix”

Species on record: Rattus norvegicus
Test: DrugMatrix - Regimen: Daily Repeat
Assay type: toxicity, organism-based, Sprague-Dawley
Set-up: regimen Daily Repeat, gender Male, age 6-8 weeks
Conditions: in vivo, po, route oral GAVAGE, vehicle .5 % CMC
[1] = 83 mg/kg, 72 h, tissue Blood, dose level High, time 3 day
[2] = 83 mg/kg, 72 h, tissue Plasma, dose level High, time 3 day
[3] = 83 mg/kg, 120 h, tissue Blood, dose level High, time 5 day
[4] = 83 mg/kg, 120 h, tissue Plasma, dose level High, time 5 day
[5] = […], 72 h, tissue Blood, dose 8.3 mg/Kg, dose level Low, time 3 day
[6] = […], 72 h, tissue Plasma, dose 8.3 mg/Kg, dose level Low, time 3 day
[7] = […], 120 h, tissue Blood, dose 8.3 mg/Kg, dose level Low, time 5 day
[8] = […], 120 h, tissue Plasma, dose 8.3 mg/Kg, dose level Low, time 5 day

## SODIUM ORTHOVANAD
[1]
  ABSOLUTE BASOPHIL: 0 CELLS/uL
  ABSOLUTE EOSINOPHIL: 49.33 CELLS/uL
  ABSOLUTE LYMPHOCYTE: 13060 CELLS/uL
  ABSOLUTE MONOCYTE: 206 CELLS/uL
  ABSOLUTE SEGMENTED NEUTROPHIL: 2051.33 CELLS/uL
  BASOPHIL: 0%
  EOSINOPHIL: 0.33%
  ERYTHROCYTE COUNT: 5.99 x10E6/uL
  LEUKOCYTE COUNT: 15.37 x10E3/uL
  LYMPHOCYTE: 85%
  MEAN CORPUSCULAR HEMOGLOBIN: 23.17 pg
  MEAN CORPUSCULAR HEMOGLOBIN CONCENTRATION: 37.8 G/DL
  NEUTROPHIL: 13.33%
  NUCLEATED RED BLOOD CELLS: 0.67 /100WBC
  PLATELET COUNT: 1409 x10E3/uL
[2]
  ALANINE AMINOTRANSFERASE: 51.33 u/L
  ALKALINE PHOSPHATASE: 333.67 u/L
  ASPARTATE AMINOTRANSFERASE: 81.67 u/L
  BLOOD UREA NITROGEN: 13.33 mg/dL
  CARBON DIOXIDE: 16.67 mmol/L
  CHOLESTEROL: 69 mg/dL
  CREATINE PHOSPHOKINASE: 309.33 u/L
  CREATININE: 0.2 mg/dL
  LACTATE DEHYDROGENASE: 147.67 u/L
  LIPASE: 9 u/L
  PHOSPHORUS: 10.33 mg/dL
  POTASSIUM: 6.71 MEQ/L
  SODIUM: 146.67 MEQ/L
  TOTAL BILIRUBIN: 0.27 mg/dL
  TOTAL PROTEIN: 5.43 G/DL
  URIC ACID: 1.8 mg/dL
[3]
  ABSOLUTE BASOPHIL: 0 CELLS/uL
  ABSOLUTE EOSINOPHIL: 42.5 CELLS/uL
  ABSOLUTE LYMPHOCYTE: 9180 CELLS/uL
  ABSOLUTE MONOCYTE: 133 CELLS/uL
  ABSOLUTE SEGMENTED NEUTROPHIL: 1544.5 CELLS/uL
  BASOPHIL: 0%
  EOSINOPHIL: 0.5%
  ERYTHROCYTE COUNT: 6.11 x10E6/uL
  HEMATOCRIT: 36.85%
  HEMOGLOBIN: 13.8 G/DL
  LEUKOCYTE COUNT: 10.9 x10E3/uL
  LYMPHOCYTE: 84%
  MEAN CORPUSCULAR HEMOGLOBIN: 22.65 pg
  MEAN CORPUSCULAR HEMOGLOBIN CONCENTRATION: 37.45 G/DL
  MEAN CORPUSCULAR VOLUME: 60.35 fL
  MONOCYTE: 1%
  NEUTROPHIL: 14.5%
  NUCLEATED RED BLOOD CELLS: 0 /100WBC
  PLATELET COUNT: 1518 x10E3/uL
[4]
  ALANINE AMINOTRANSFERASE: 55 u/L
  ALBUMIN: 4.2 G/DL
  ALKALINE PHOSPHATASE: 268.5 u/L
  ASPARTATE AMINOTRANSFERASE: 90 u/L
  BLOOD UREA NITROGEN: 15.5 mg/dL
  CARBON DIOXIDE: 32.5 mmol/L
  CHOLESTEROL: 82 mg/dL
  CREATINE PHOSPHOKINASE: 294.5 u/L
  CREATININE: 0.22 mg/dL
  LACTATE DEHYDROGENASE: 221.5 u/L
  LIPASE: 14 u/L
  POTASSIUM: 6.81 MEQ/L
  SODIUM: 147.35 MEQ/L
  TOTAL BILIRUBIN: 0.15 mg/dL
  TOTAL PROTEIN: 6 G/DL
  URIC ACID: 1.65 mg/dL
[5]
  ABSOLUTE BASOPHIL: 0 CELLS/uL
  ABSOLUTE EOSINOPHIL: 0 CELLS/uL
  ABSOLUTE MONOCYTE: 61 CELLS/uL
  ABSOLUTE SEGMENTED NEUTROPHIL: 1531 CELLS/uL
  BASOPHIL: 0%
  EOSINOPHIL: 0%
  ERYTHROCYTE COUNT: 5.33 x10E6/uL
  HEMATOCRIT: 34.23%
  HEMOGLOBIN: 13.1 G/DL
  LEUKOCYTE COUNT: 14.33 x10E3/uL
  LYMPHOCYTE: 89%
  MEAN CORPUSCULAR HEMOGLOBIN: 24.6 pg
  MEAN CORPUSCULAR HEMOGLOBIN CONCENTRATION: 38.27 G/DL
  MONOCYTE: 0.33%
  NEUTROPHIL: 10.67%
  NUCLEATED RED BLOOD CELLS: 0 /100WBC
  PLATELET COUNT: 1191.67 x10E3/uL
[6]
  ALANINE AMINOTRANSFERASE: 51 u/L
  ALBUMIN: 4.1 G/DL
  ALKALINE PHOSPHATASE: 345.67 u/L
  ASPARTATE AMINOTRANSFERASE: 90.67 u/L
  BLOOD UREA NITROGEN: 12.67 mg/dL
  CARBON DIOXIDE: 22 mmol/L
  CHLORIDE: 108.67 MEQ/L
  CHOLESTEROL: 71.67 mg/dL
  CREATINE PHOSPHOKINASE: 295.67 u/L
  CREATININE: 0.21 mg/dL
  LACTATE DEHYDROGENASE: 309 u/L
  LIPASE: 11 u/L
  PHOSPHORUS: 11.73 mg/dL
  POTASSIUM: 6.03 MEQ/L
  TOTAL BILIRUBIN: 0.2 mg/dL
  TOTAL PROTEIN: 5.73 G/DL
  URIC ACID: 1.3 mg/dL
[7]
  ABSOLUTE BASOPHIL: 0 CELLS/uL
  ABSOLUTE EOSINOPHIL: 0 CELLS/uL
  ABSOLUTE LYMPHOCYTE: 10049 CELLS/uL
  ABSOLUTE MONOCYTE: 38 CELLS/uL
  ABSOLUTE SEGMENTED NEUTROPHIL: 579.67 CELLS/uL
  BASOPHIL: 0%
  EOSINOPHIL: 0%
  ERYTHROCYTE COUNT: 5.74 x10E6/uL
  HEMATOCRIT: 36.57%
  LEUKOCYTE COUNT: 10.67 x10E3/uL
  LYMPHOCYTE: 94.33%
  MEAN CORPUSCULAR HEMOGLOBIN: 23.4 pg
  MEAN CORPUSCULAR HEMOGLOBIN CONCENTRATION: 36.67 G/DL
  MONOCYTE: 0.33%
  NEUTROPHIL: 5.33%
  NUCLEATED RED BLOOD CELLS: 0.33 /100WBC
  PLATELET COUNT: 1343.67 x10E3/uL
[8]
  ALANINE AMINOTRANSFERASE: 63.33 u/L
  ALKALINE PHOSPHATASE: 318 u/L
  ASPARTATE AMINOTRANSFERASE: 80 u/L
  CARBON DIOXIDE: 24 mmol/L
  CHOLESTEROL: 69.33 mg/dL
  CREATINE PHOSPHOKINASE: 250 u/L
  CREATININE: 0.18 mg/dL
  GLUCOSE: 176.33 mg/dL
  LACTATE DEHYDROGENASE: 93.33 u/L
  POTASSIUM: 6.41 MEQ/L
  SODIUM: 147.03 MEQ/L
  TOTAL BILIRUBIN: 0.27 mg/dL
  TOTAL PROTEIN: 6.2 G/DL
  URIC ACID: 2.1 mg/dL
